Experimental data from ChEMBL document CHEMBL5260852, “Long-Acting Tumor-Activated Prodrug of a TGFβR Inhibitor” (J Med Chem, 2021).
Active and inactive are the calls of the source. No cut-off for these calls is given here. Numbered stars: 1 amine (or outer) side, 2 acyl side, 3 side chain; on linkers, the order of the positions; unused ones are H or OH. Square brackets hold non-standard residues; d marks the D form. Peptide text beside a SMILES is read from it. * marks the point of attachment. X1 = N#Cc1cnc2ccc(-c3c(-c4ccc(F)c(Cl)c4)ncn3CCOCN*)nn12; C18 diacid = O=C(O)CCCCCCCCCCCCCCCCC(=O)*; γGlu = O=C(O)[C@H](CCC(=O)[*:2])N[*:1]; PABC = O=C(OCc1ccc(N[*:1])cc1)[*:2]; AEEA = NCCOCCOCC(=O)O

Columns and labels:
[1] = Prodrug conversion in blood of C57BL/6 mouse xenografted mouse MC38 cells assessed as BMS-986260 ratio of AUC in tumor to blood at 8 mg/kg,iv and measured after 72 hrs by LC-MS/MS analysis; type: ADME, organism-based, MC-38; settings: tumour
[2] = AUC in C57BL/6 mouse plasma at 6 mg/kg,iv and measured upto 24 hrs by LC-MS/MS analysis; type: ADME, organism-based; parameters: dose 6 mg/kg, time < 24 hrs, route iv
[3] = test system: MC-38; assay: Antitumor activity against mouse MC38 cells allografted in C57BL/6 mouse assessed as reduction in tumor volume at 40 to 80 mg/kg, iv for 4 weeks in presence of anti-PD-1 antibody; type: functional, organism-based; settings: dose 40-80 mg/kg
[4] = Prodrug conversion in blood of C57BL/6 mouse xenografted mouse MC38 cells assessed as BMS-986260 AUC (0 to 72 hrs) at 8 mg/kg,iv and measured after 72 hrs by LC-MS/MS analysis; type: ADME, organism-based, MC-38; parameters: time 72 hrs, dose 8 mg/kg, route iv; settings: in vivo
[5] = Drug concentration in C57BL/6 mouse plasma at 6 mg/kg,iv and measured after 24 hrs by LC-MS/MS analysis; type: ADME, organism-based
[6] = Toxicity in rat assessed as mortality at 3 mg/kg,iv for 3 months; type: organism-based; settings: in vivo, 2190 h
[7] = Prodrug conversion in blood of C57BL/6 mouse xenografted mouse MC38 cells assessed as BMS-986260 Tmax at 8 mg/kg,iv and measured after 72 hrs by LC-MS/MS analysis; type: ADME, organism-based, MC-38; settings: in vivo
[8] = Prodrug conversion in heart of C57BL/6 mouse xenografted mouse MC38 cells assessed as BMS-986260 Cmax at 8 mg/kg,iv and measured after 72 hrs by LC-MS/MS analysis; type: ADME, organism-based, MC-38; parameters: dose 8 mg/kg, time 72 hrs, route iv; settings: in vivo
[9] = Prodrug conversion in heart of C57BL/6 mouse xenografted mouse MC38 cells assessed as BMS-986260 Tmax at 8 mg/kg,iv and measured after 72 hrs by LC-MS/MS analysis; type: ADME, organism-based, MC-38; settings: in vivo
[10] = Prodrug conversion in C57BL/6 mouse xenografted mouse MC38 cells assessed as BMS-986260 ratio of AUC in heart to blood at 8 mg/kg,iv and measured after 72 hrs by LC-MS/MS analysis; type: ADME, organism-based, MC-38; settings: other tissue
[11] = Toxicity in C57BL/6 mouse at 80 mg/kg,iv; type: organism-based; settings: in vivo
[12] = Prodrug conversion in heart of C57BL/6 mouse xenografted mouse MC38 cells assessed as BMS-986260 AUC (0 to 72 hrs) at 8 mg/kg,iv and measured after 72 hrs by LC-MS/MS analysis; type: ADME, organism-based, MC-38; parameters: time 72 hrs, dose 8 mg/kg, route iv; settings: in vivo
[13] = AUC (0 to 72 hrs) in rat at 40 mg/kg,iv for 3 months; type: ADME, organism-based; parameters: time 3 months, dose 40 mg/kg, route iv; settings: in vivo
[14] = Prodrug conversion in blood of C57BL/6 mouse xenografted mouse MC38 cells assessed as BMS-986260 Cmax at 8 mg/kg,iv and measured after 72 hrs by LC-MS/MS analysis; type: ADME, organism-based, MC-38; parameters: dose 8 mg/kg, time 72 hrs, route iv; settings: in vivo
[15] = Prodrug conversion in tumor of C57BL/6 mouse xenografted mouse MC38 cells assessed as BMS-986260 Cmax at 8 mg/kg,iv and measured after 72 hrs by LC-MS/MS analysis; type: ADME, organism-based, Neoplasm, MC-38; parameters: dose 8 mg/kg, time 72 hrs, route iv; settings: in vivo
[16] = AUC (0 to 24 hrs) in rat at 3 mg/kg,iv for 3 months; type: ADME, organism-based; parameters: time 3 months, dose 3 mg/kg, route iv; settings: in vivo
[17] = Prodrug conversion in tumor of C57BL/6 mouse xenografted mouse MC38 cells assessed as BMS-986260 AUC (0 to 72 hrs) at 8 mg/kg,iv and measured after 72 hrs by LC-MS/MS analysis; type: ADME, organism-based, Neoplasm, MC-38; parameters: time 72 hrs, dose 8 mg/kg, route iv; settings: in vivo
[18] = Stability in rat plasma assessed as parent compound remaining after 24 hrs by HPLC-MS analysis; type: ADME, cell-free; settings: read-out: Stability
[19] = AUC (0 to 72 hrs) in rat at 3 mg/kg,iv for 3 months; type: ADME, organism-based; parameters: dose 3 mg/kg, time 3 months, route iv; settings: in vivo
[20] = Prodrug conversion in blood of C57BL/6 mouse xenografted mouse MC38 cells assessed as BMS-986260 ratio of AUC in tumor to heart at 8 mg/kg,iv and measured after 72 hrs by LC-MS/MS analysis; type: ADME, organism-based, MC-38; settings: in vivo
[21] = Stability in mouse plasma assessed as parent compound remaining after 24 hrs by HPLC-MS analysis; type: ADME, cell-free; settings: read-out: Stability
[22] = Prodrug conversion in tumor of C57BL/6 mouse xenografted mouse MC38 cells assessed as BMS-986260 Tmax at 8 mg/kg,iv and measured after 72 hrs by LC-MS/MS analysis; type: ADME, organism-based, Neoplasm, MC-38; settings: in vivo

**Q.** What does the source list for `CC(C)C[C@H](NC(=O)COCCOCCNC(=O)COCCOCCNC(=O)CC[C@H](NC(=O)CC[C@H](NC(=O)CCCCCCCCCCCCCCCCC(=O)O)C(=O)O)C(=O)O)C(=O)N[C@@H](CO)C(=O)NCC(=O)N[C@@H](CCCCN)C(=O)Nc1ccc(COC(=O)NCOCCn2cnc(-c3ccc(F)c(Cl)c3)c2-c2ccc3ncc(C#N)n3n2)cc1` ({C18 diacid-γGlu-γGlu-AEEA-AEEA}-LSGK[PABC]-X1)?
**A.** Ratio AUC [1]: 3.1; AUC at 24 h [2]: 270 µM·h; Activity [3]: Active; AUC [4]: 3.9 µM·h; concentration at 24 h [5]: 5.2 µM; Activity [6]: Non-Toxic; Tmax [7]: 1 h; Cmax [8]: 200 nM; Tmax [9]: 8 h; Ratio AUC [10]: 1.7; Activity [11]: Non-Toxic; AUC [12]: 6.7 µM·h; AUC(0-t) at 2190 h [13]: 81 µM·h; Cmax [14]: 120 nM; Cmax [15]: 310 nM; AUC(0-t) at 2190 h [16]: 27 µM·h; AUC [17]: 12 µM·h; remaining at 24 h [18]: 87%; AUC(0-t) at 2190 h [19]: 15 µM·h; Ratio AUC [20]: 1.8; remaining at 24 h [21]: 92%; Tmax [22]: 1 h
